In US20220073536A1 (Rigel Pharmaceuticals, Inc., priority 2003, published 2022) one finds IC50 data, which are given here for 32 molecules.

Assay [1] concerns cultured human mast cells (CHMC). Briefly: CHMC low cell density ionomycin activation: tryptase assay. Format: cell-based. The settings on record: read-out: LD Tryptase, CHMC, Iono, 3 pt.
Assay [2] has the same test system. The experiment in a line: CHMC low cell density IgE activation: tryptase assay. The settings on record: IgE activation. Type of assay: cell-based. In a few lines: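 Tryptase release, fluorogenic substrate, 30 min RT. Prior anti-IgE stimulation of CHMC, 30 min, 37 °C, after 1 hr preincubation at 1000–1500 cells/well in MT; unstimulated wells received MT.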
Setting [3] is: Homo sapiens, Mast cell, low cell density, 3 pt.
[4] abbreviates: Homo sapiens, Mast cell, low cell density, 3 pt, read-out: LD Tryptase, CHMC, IgE, 3 pt.
Setting [5] is: Homo sapiens, Mast cell, low cell density, 8 pt, read-out: LD Tryptase, CHMC, IgE, 8 pt.
The mark [6] stands for this setting: Homo sapiens, Mast cell, low cell density CHMC, tryptase release, 3 point.
The mark [7] stands for this setting: Homo sapiens, Mast cell, low cell density CHMC, tryptase release, 3 point, read-out: LD Tryptase, CHMC, IgE, 3 pt.
The mark [8] stands for this setting: low cell density CHMC, tryptase release, 3 point.
[9] abbreviates: low cell density CHMC, tryptase release, 3 point, read-out: LD Tryptase, CHMC, IgE, 3 pt.
Setting [10] is: Homo sapiens, Mast cell, low cell density CHMC, tryptase release, 8 point, read-out: LD Tryptase, CHMC, IgE, 8 pt.
The mark [11] stands for this setting: low cell density CHMC, tryptase release, 8 point, read-out: LD Tryptase, CHMC, IgE, 8 pt.

Regarding `Cc1ccc(Nc2nc(Nc3cc(C)cc(C)c3)ncc2F)nc1` [Compound 509], the IC50 in assay [1] (setting [3]) is more than 10 µM; in assay [2] (setting [4]), less than 10 µM; in assay [2] (setting [5]), less than 10 µM.

For `COc1cc(Nc2ncc(F)c(Nc3ccc(Cl)cn3)n2)cc(OC)c1` [Compound 510], the IC50 in assay [1] (setting [3]) was more than 10 µM; in assay [2] (setting [4]) it was less than 10 µM; in assay [2] (setting [5]) it was less than 10 µM.

As to `Fc1cnc(Nc2cccc(-c3ncon3)c2)nc1Nc1ccc2c(c1)OCCO2` [Compound 512], the IC50 in assay [1] (setting [3]) is more than 10 µM; in assay [2] (setting [4]), less than 10 µM.

As to `COc1ccc(Nc2nc(Nc3cccc(-c4ncon4)c3)ncc2F)cc1OC` [Compound 513], the values for the IC50 in assay [1] (setting [3]) and in assay [2] (setting [4]) were more than 10 µM and less than 10 µM, respectively.

For the molecule `CC1(C)Oc2ccc(Nc3nc(Nc4cccc(-c5ncon5)c4)ncc3F)cc2NC1=O` [Compound 514, N4-(2,2-Dimethyl-3-oxo-4H-benz[1,4]oxazin-6-yl)-5-fluoro-N2-[3-(1,2,4-oxadiazol-3-yl)phenyl]-2,4-pyrimidinediamine], the IC50 in assay [1] (setting [3]) was more than 10 µM; in assay [2] (setting [4]), less than 10 µM.

Consider `COC(=O)c1cc(Nc2ncc(F)c(Nc3ccc(OC)c(OC)c3)n2)cc(-c2ncco2)c1` [Compound 515, N4-(3,4-Dimethoxyphenyl)-5-fluoro-N2-[5-methoxycarbonyl-3-(oxazol-2-yl)phenyl]-2,4-pyrimidinediamine], for which the IC50 was more than 10 µM in assay [1] (setting [3]) and less than 10 µM in assay [2] (setting [4]).

`COC(=O)c1cc(Nc2ncc(F)c(Nc3ccc4c(c3)OCCO4)n2)cc(-c2ncco2)c1` [Compound 516, N4-(3,4-Ethylenedioxyphenyl)-5-fluoro-N2-[5-methoxycarbonyl-3-(oxazol-2-yl)phenyl]-2,4-pyrimidinediamine]: the IC50 in assay [1] (setting [3]) and in assay [2] (setting [4]) was more than 10 µM throughout.

On to `COC(=O)c1cc(Nc2ncc(F)c(Nc3ccc4c(c3)NC(=O)C(C)(C)O4)n2)cc(-c2ncco2)c1` [Compound 517, N4-(2,2-Dimethyl-3-oxo-4H-benz[1,4]oxazin-6-yl)-5-fluoro-N2-[5-methoxycarbonyl-3-(oxazol-2-yl)phenyl]-2,4-pyrimidinediamine], for which the IC50 in assay [1] (setting [3]) and in assay [2] (setting [4]) was more than 10 µM in each case.

With `COC(=O)c1cc(Nc2ncc(F)c(Nc3cccc(O)c3)n2)cc(-c2ncco2)c1` [Compound 518, 5-Fluoro-N4-(3-hydroxyphenyl)-N2-[5-methoxycarbonyl-3-(oxazol-2-yl)phenyl]-2,4-pyrimidinediamine], the IC50 in assay [1] (setting [3]) is more than 10 µM; in assay [2] (setting [4]), less than 10 µM.

As for `Fc1cnc(Nc2cc(-c3ncco3)cc(C(F)(F)F)c2)nc1Nc1ccc2c(c1)OCCO2` [Compound 519, N4-(3,4-Ethylenedioxyphenyl)-5-fluoro-N2-[3-(oxazol-2-yl)-5-trifluoromethylphenyl]-2,4-pyrimidinediamine], the IC50 in assay [1] (setting [3]) was more than 10 µM; in assay [2] (setting [4]) it was less than 10 µM.

Regarding `COc1ccc(Nc2nc(Nc3cc(-c4ncco4)cc(C(F)(F)F)c3)ncc2F)cc1OC` [Compound 520, N4-(3,4-Dimethoxyphenyl)-5-fluoro-N2-[3-(oxazol-2-yl)-5-trifluoromethylphenyl]-2,4-pyrimidinediamine], the IC50 was more than 10 µM in assay [1] (setting [3]) and less than 10 µM in assay [2] (setting [4]).

`CC1(C)Oc2ccc(Nc3nc(Nc4cc(-c5ncco5)cc(C(F)(F)F)c4)ncc3F)cc2NC1=O` [Compound 521, N4-(2,2-Dimethyl-3-oxo-4H-benz[1,4]oxazin-6-yl)-5-fluoro-N2-[3-(oxazol-2-yl)-5-trifluoromethylphenyl]-2,4-pyrimidinediamine]: the results for the IC50 in assay [1] (setting [3]) and in assay [2] (setting [4]) were more than 10 µM and less than 10 µM, respectively.

Turning to `CC(C)Oc1ccc(N(C)c2nc(Cl)ncc2F)cn1` [Compound 576], the IC50 in assay [1] (setting [6]) and in assay [2] (setting [7]) was more than 10 µM each time.

For `COc1cc(Nc2ncc(F)c(N(C)c3ccc(OC)c(Cl)c3)n2)cc(OC)c1` [Compound 577], the values for the IC50 in assay [1] (setting [6]) and in assay [2] (setting [7]) were more than 10 µM and less than 10 µM, respectively.

`COc1ccc(N(C)c2nc(Nc3cc(C)c(OC)c(Cl)c3)ncc2F)cc1Cl` [Compound 578, N2-(3-Chloro-4-methoxy-5-methylphenyl)-N4-(3-chloro-4-methoxyphenyl)-5-fluoro-N4-methyl-2,4-pyrimidinediamine]: the values for the IC50 in assay [1] (setting [6]) and in assay [2] (setting [7]) were more than 10 µM and less than 10 µM, respectively.

As for `CNC(=O)COc1c(C)cc(Nc2ncc(F)c(N(C)c3ccc(OC)c(Cl)c3)n2)cc1C` [Compound 579, N4-(3-Chloro-4-methoxyphenyl)-N2-[3,5-dimethyl-4-(N-methylamino)carbonylmethyleneoxyphenyl]-5-fluoro-N4-methyl-2,4-pyrimidinediamine], the IC50 was more than 10 µM in assay [1] (setting [8]) and less than 10 µM in assay [2] (setting [9]).

Take `CNC(=O)COc1cccc(Nc2ncc(F)c(N(C)c3ccc(OC)c(Cl)c3)n2)c1` [Compound 580, N4-(3-Chloro-4-methoxyphenyl)-N2-[3-(N-methylamino)carbonylmethyleneoxyphenyl]-5-fluoro-N4-methyl-2,4-pyrimidinediamine]: the IC50 was more than 10 µM in assay [1] (setting [8]) and less than 10 µM in assay [2] (setting [9]).

On to `COc1cc(Nc2ncc(F)c(N(C)c3ccc(OC(C)C)nc3)n2)cc(OC)c1` [Compound 581, N2-(3,5-Dimethoxyphenyl)-5-fluoro-N4-(2-isopropoxypyrid-5-yl)-N4-methyl-2,4-pyrimidinediamine], for which the IC50 in assay [1] (setting [6]) is more than 10 µM; in assay [2] (setting [7]) it was less than 10 µM.

As for `CNC(=O)COc1cccc(Nc2ncc(F)c(N(C)c3ccc(OC(C)C)nc3)n2)c1` [Compound 582, 5-Fluoro-N4-(2-isopropoxypyrid-5-yl)-N4-methyl-N2-[3-(N-methylamino)carbonylmethyleneoxyphenyl]-2,4-pyrimidinediamine], the IC50 in assay [1] (setting [8]) is more than 10 µM; in assay [2] (setting [9]), less than 10 µM.

`Cc1cc(C)cc(Nc2ncc(F)c(N(C)c3ccc(OC(C)C)nc3)n2)c1` [Compound 583, N2-(3,5-Dimethylphenyl)-5-fluoro-N4-(2-isopropoxypyrid-5-yl)-N4-methyl-2,4-pyrimidinediamine]: the IC50 in assay [1] (setting [6]) was more than 10 µM; in assay [2] (setting [7]), less than 10 µM.

For `COc1ccc(N(C)c2nc(Nc3cc(C)cc(C)c3)ncc2F)cc1Cl` [Compound 584], the IC50 was more than 10 µM in assay [1] (setting [6]) and less than 10 µM in assay [2] (setting [7]).

Take `COC(=O)c1cc2cc(Nc3ncc(F)c(N(C)c4ccc(OC)c(Cl)c4)n3)ccc2o1` [Compound 585, N4-(3-Chloro-4-methoxyphenyl)-5-fluoro-N2-(2-methoxycarbonylbenzofuran-5-yl)-N4-methyl-2,4-pyrimidinediamine]: the IC50 in assay [1] (setting [6]) and in assay [2] (setting [7]) was more than 10 µM in each case.

In the case of `COC(=O)c1cc2cc(Nc3ncc(F)c(N(C)c4ccc(OC(C)C)nc4)n3)ccc2o1` [Compound 586, 5-Fluoro-N4-(2-isopropoxypyrid-5-yl)-N2-(2-methoxycarbonylbenzofuran-5-yl)-N4-methyl-2,4-pyrimidinediamine], the IC50 in assay [1] (setting [6]) and in assay [2] (setting [7]) was less than 10 µM in each case.

For `COc1cc(Nc2ncc(F)c(N(C)c3ccc(Cl)c(OC)c3)n2)cc(OC)c1` [Compound 587, N4-(4-Chloro-3-methoxyphenyl)-N2-(3,5-dimethoxyphenyl)-5-fluoro-N4-methyl-2,4-pyrimidinediamine], the IC50 in assay [1] (setting [6]) is more than 10 µM; in assay [2] (setting [7]), less than 10 µM; in assay [2] (setting [10]), less than 10 µM.

`COc1cc(N(C)c2nc(Nc3cc(C)cc(C)c3)ncc2F)ccc1Cl` [Compound 588]: the figures for the IC50 in assay [1] (setting [6]) and in assay [2] (setting [7]) were more than 10 µM and less than 10 µM, respectively.

For `CNC(=O)COc1cccc(Nc2ncc(F)c(N(C)c3ccc(Cl)c(OC)c3)n2)c1` [Compound 589, N4-(4-Chloro-3-methoxyphenyl)-5-fluoro-N4-methyl-N2-[3-(N-methylamino)carbonylmethyleneoxyphenyl]-2,4-pyrimidinediamine], the IC50 in assay [1] (setting [8]) was more than 10 µM; in assay [2] (setting [9]), less than 10 µM; in assay [2] (setting [11]), less than 10 µM.

With `COc1cc(N(C)c2nc(Nc3ccc4[nH]ccc4c3)ncc2F)ccc1Cl` [Compound 590, N4-(4-Chloro-3-methoxyphenyl)-5-fluoro-N2-(indol-5-yl)-N4-methyl-2,4-pyrimidinediamine], the IC50 in assay [1] (setting [6]) was more than 10 µM; in assay [2] (setting [7]) it was less than 10 µM; in assay [2] (setting [10]) it was less than 10 µM.

Turning to `COc1cc(Nc2ncc(F)c(N(C)c3cc(C)c(Cl)c(C)c3)n2)cc(OC)c1` [Compound 591], the IC50 in assay [1] (setting [6]) is more than 10 µM; in assay [2] (setting [7]), less than 10 µM; in assay [2] (setting [10]), less than 10 µM.

Consider `Cc1cc(C)cc(Nc2ncc(F)c(N(C)c3cc(C)c(Cl)c(C)c3)n2)c1` [Compound 592], for which the IC50 in assay [1] (setting [6]) and in assay [2] (setting [7]) was more than 10 µM throughout.

Take `CNC(=O)COc1cccc(Nc2ncc(F)c(N(C)c3cc(C)c(Cl)c(C)c3)n2)c1` [Compound 593, N4-(4-Chloro-3,5-dimethylphenyl)-5-fluoro-N4-methyl-N2-[3-(N-methylamino)carbonylmethyleneoxyphenyl]-2,4-pyrimidinediamine]: the IC50 in assay [1] (setting [8]) was more than 10 µM; in assay [2] (setting [9]), less than 10 µM; in assay [2] (setting [11]), less than 10 µM.

`Cc1cc(N(C)c2nc(Nc3ccc4[nH]ccc4c3)ncc2F)cc(C)c1Cl` [Compound 594]: the IC50 in assay [1] (setting [6]), in assay [2] (setting [7]) and in assay [2] (setting [10]) was less than 10 µM each time.

Consider `COC(=O)c1cc2cc(Nc3ncc(F)c(N(C)c4cc(C)c(Cl)c(C)c4)n3)ccc2o1` [Compound 595], for which the IC50 in assay [1] (setting [6]) and in assay [2] (setting [7]) was more than 10 µM throughout.
